# Experimental data reported in the Kinase Knowledgebase extract (Sharma et al. 2016).
# pKi: −log10 of the molar value.
# Target: PIK3CG (human) (UniProt P48736)
# Experiment: Assessment of PIK3CG Kinase Activity
# Chain of PIK3CG (human) (P48736 whole entry, looked up): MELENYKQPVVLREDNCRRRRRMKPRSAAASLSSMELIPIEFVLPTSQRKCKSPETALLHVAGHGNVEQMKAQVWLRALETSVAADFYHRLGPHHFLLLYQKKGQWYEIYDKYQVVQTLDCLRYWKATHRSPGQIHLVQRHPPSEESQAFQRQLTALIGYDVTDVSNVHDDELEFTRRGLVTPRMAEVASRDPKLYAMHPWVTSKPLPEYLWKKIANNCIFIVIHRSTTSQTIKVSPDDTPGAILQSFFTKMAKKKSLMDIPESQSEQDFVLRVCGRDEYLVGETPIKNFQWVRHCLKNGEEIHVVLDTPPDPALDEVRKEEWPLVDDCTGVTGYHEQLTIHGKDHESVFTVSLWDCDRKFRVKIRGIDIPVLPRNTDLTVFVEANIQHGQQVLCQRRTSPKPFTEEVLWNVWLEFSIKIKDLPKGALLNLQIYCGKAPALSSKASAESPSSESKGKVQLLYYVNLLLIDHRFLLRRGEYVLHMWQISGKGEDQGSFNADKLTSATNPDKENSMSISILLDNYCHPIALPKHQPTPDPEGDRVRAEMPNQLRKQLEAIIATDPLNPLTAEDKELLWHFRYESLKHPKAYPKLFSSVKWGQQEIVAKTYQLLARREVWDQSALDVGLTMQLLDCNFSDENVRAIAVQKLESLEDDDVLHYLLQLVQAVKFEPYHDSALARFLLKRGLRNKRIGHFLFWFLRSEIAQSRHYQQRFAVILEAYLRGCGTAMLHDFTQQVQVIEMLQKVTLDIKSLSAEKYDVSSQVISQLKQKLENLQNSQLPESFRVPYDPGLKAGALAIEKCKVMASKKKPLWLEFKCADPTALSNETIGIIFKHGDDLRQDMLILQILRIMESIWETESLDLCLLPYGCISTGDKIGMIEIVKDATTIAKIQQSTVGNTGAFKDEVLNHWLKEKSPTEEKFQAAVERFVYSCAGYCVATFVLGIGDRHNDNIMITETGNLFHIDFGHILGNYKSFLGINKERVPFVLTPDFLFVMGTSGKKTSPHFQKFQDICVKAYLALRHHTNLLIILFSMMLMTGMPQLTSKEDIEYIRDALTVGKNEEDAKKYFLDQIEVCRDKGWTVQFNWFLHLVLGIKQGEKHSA
row,SMILES,pKi
1,CC(=O)Nc1ccc(C#Cc2sc(NC(=O)NCCOCC3CC3)nc2C)cn1,6.60 to 7.30
2,CCOC(=O)[C@H]1CCC[C@H]1NC(=O)Nc1nc(C)c(C#Cc2ccncc2)s1,6.60 to 7.30
3,Cc1nc(NC(=O)NCCc2nccs2)sc1C#Cc1ccncc1,6.60 to 7.30
4,Cc1nc(NC(=O)NCCCOCC2CC2)sc1C#Cc1ccncc1,6.60 to 7.30
5,Cc1nc(NC(=O)NCCC(=O)N(C)CC(F)(F)F)sc1C#Cc1ccccc1,6.60 to 7.30
6,Cc1nc(NC(=O)NCCOCC2CC2)sc1C#Cc1ccnn1C,6.60 to 7.30
7,CC(=O)Nc1nc(C)c(C#Cc2sc(NC(=O)NCCOCC3CC3)nc2C)s1,6.60 to 7.30
8,COc1cccc(C#Cc2sc(NC(=O)NCCOCC3CC3)nc2C)c1,6.60 to 7.30
9,Cc1nc(NC(=O)N2CCC(OCc3ccccc3)C2)sc1C#Cc1ccncc1 (stereo not given),6.60 to 7.30
10,COC(=O)c1ccn2cc(CCNC(=O)Nc3nc(C)c(C#Cc4ccncc4)s3)nc2c1,6.60 to 7.30
11,Cc1nc(NC(=O)NCCOCC2CC2)sc1C#Cc1cnc2ccccc2c1,6.60 to 7.30
12,Cc1nc(NC(=O)NCCOc2cccnc2)sc1C#Cc1ccnc(Cl)c1,6.60 to 7.30
13,Cc1nc(NC(=O)NCCc2cn(CC(F)F)cn2)sc1C#Cc1ccccc1Cl,6.60 to 7.30
14,Cc1nc(NC(=O)[C@@H]2CCC(=O)N2)sc1C#Cc1ccncc1,6.60 to 7.30
15,Cc1cc(O)nc(CCNC(=O)Nc2nc(C)c(C#Cc3ccncc3)s2)n1,6.60 to 7.30
16,Cc1nc(NC(=O)NCCCOCC(F)(F)F)sc1C#Cc1ccncc1,6.60 to 7.30
17,CC(=O)Nc1nc(C)c(C#Cc2cncn2C)s1,6.60 to 7.30
18,Cc1nc(NC(=O)NCCOCC(F)(F)F)sc1C#Cc1ccncc1,6.60 to 7.30
19,CC(=O)Nc1nc(C)c(C#Cc2ccc(N)cc2)s1,6.60 to 7.30
20,Cc1nc(NC(=O)NCCOCC2CC2)sc1C#Cc1ccc(Cl)nc1,6.60 to 7.30
21,COc1cc(C#Cc2sc(NC(=O)NCCOCC3CC3)nc2C)cnc1Cl,6.60 to 7.30
22,Cc1nc(NC(=O)NCCn2nnc3ccccc32)sc1C#Cc1ccncc1,6.60 to 7.30
23,Cc1nc(NC(=O)CCCC(=O)NCC(F)F)sc1C#Cc1ccncc1,6.60 to 7.30
24,CC(=O)Nc1nc(C)c(C#Cc2ccsc2)s1,6.60 to 7.30
25,CCOC(=O)CCCC(=O)Nc1nc(C)c(C#Cc2ccncc2)s1,6.60 to 7.30
26,COc1ccc(C#Cc2sc(NC(=O)NCCOCC3CC3)nc2C)cn1,6.60 to 7.30

row,SMILES,pKi
1,Cc1nc(NC(=O)NCCc2cn(CC(F)F)cn2)sc1C#Cc1ccccc1,6.60 to 7.30
2,Cc1cccc(NC(=O)CC(=O)Nc2nc(C)c(C#Cc3ccncc3)s2)c1,6.60 to 7.30
3,Cc1nc(NC(=O)NCCc2ccncc2)sc1C#Cc1ccncc1,6.60 to 7.30
4,CCc1cnc(CCNC(=O)Nc2nc(C)c(C#Cc3cncc(OC)c3)s2)s1,> 7.30
5,CCn1c(C)nc(CCNC(=O)Nc2nc(C)c(C#Cc3ccncc3)s2)c1Cl,> 7.30
6,Cc1nc(NC(=O)NCCOCC2CC2)sc1C#Cc1ccncc1F,> 7.30
7,Cc1nc(NC(=O)NCC(F)(F)F)sc1C#Cc1ccncc1,6.60 to 7.30
8,CCOCCNC(=O)Nc1nc(C)c(C#Cc2ccccc2)s1,> 7.30
9,Cc1nc(NC(=O)NCC2Cc3ccccc3O2)sc1C#Cc1ccncc1 (stereo not given),> 7.30
10,COc1ccc(C#Cc2sc(NC(=O)NC[C@H](C)OCC3CC3)nc2C)cn1,> 7.30
11,COc1ccc(OCCNC(=O)Nc2nc(C)c(C#Cc3ccncc3)s2)cc1,> 7.30
12,Cc1nc(NC(=O)NCCOCC2CC2)sc1C#Cc1cccc2ncccc12,> 7.30
13,CC(=O)N1CC(C(=O)Nc2nc(C)c(C#Cc3ccncc3)s2)C1,6.60 to 7.30
14,Cc1nc(NC(=O)CCNC(=O)c2ccccn2)sc1C#Cc1cccnc1,> 7.30
15,Cc1nc(NC(=O)NCCC(=O)NC(C)C)sc1C#Cc1ccncc1,> 7.30
16,Cc1nc(NC(=O)NCCOCC2CCCC2)sc1C#Cc1ccncc1,> 7.30
17,Cc1nc(NC(=O)NCCOCCN2CCOCC2)sc1C#Cc1ccncc1,6.60 to 7.30
18,COc1cc(C#Cc2sc(NC(=O)NCCOc3ccncc3)nc2C)cnc1OC,> 7.30
19,COc1cc(C#Cc2sc(NC(=O)NCCOc3ccccn3)nc2C)cnc1OC,> 7.30
20,CCCOCCOC(=O)Nc1nc(C)c(C#Cc2ccncc2)s1,> 7.30
21,COC(=O)CCCC(=O)Nc1nc(C)c(C#Cc2ccncc2)s1,6.60 to 7.30
22,Cc1nc(NC(=O)NCC#N)sc1C#Cc1ccncc1,> 7.30
23,CCc1cnn(CCNC(=O)Nc2nc(C)c(C#Cc3ccncc3)s2)c1,> 7.30
24,Cc1nc(NC(=O)NCCC2CCCCO2)sc1C#Cc1ccncc1 (stereo not given),> 7.30
25,Cc1nc(NC(=O)NCCOCC2CC2)sc1C#Cc1cc(Cl)ncc1F,> 7.30
26,Cc1nc(NC(=O)NCCc2ccccn2)sc1C#Cc1ccncc1,> 7.30

row,SMILES,pKi
1,Cc1nc(NC(=O)NCCOc2ccccc2F)sc1C#Cc1ccncc1,> 7.30
2,COc1cncc(C#Cc2sc(NC(C)=O)nc2C)c1,> 7.30
3,CCn1cnc(CCNC(=O)Nc2nc(C)c(C#Cc3ccncc3)s2)c1,> 7.30
4,CC(=O)Nc1nc(C)c(C#Cc2cccnc2)s1,6.60 to 7.30
5,Cc1nc(NC(=O)NCCOCC2CC2)sc1C#Cc1cncn1C,6.60 to 7.30
6,COc1ccc(C#Cc2sc(NC(C)=O)nc2C)cc1,6.60 to 7.30
7,COc1ccc(C#Cc2sc(NC(=O)NC[C@H](C)C(=O)NC(C)(C)C)nc2C)cn1,> 7.30
8,CCc1nc(NC(C)=O)sc1C#Cc1ccncc1,6.60 to 7.30
9,COc1cc(C#Cc2sc(NC(=O)NCCOCC3CC3)nc2C)cc(OC)c1,6.60 to 7.30
10,Cc1nc(NC(=O)NCCOC(=O)c2ccccc2)sc1C#Cc1ccncc1,> 7.30
11,Cc1nc(NC(=O)NCCC(=O)NCC(F)(F)F)sc1C#Cc1ccccc1,6.60 to 7.30
12,CC(=O)Nc1nc(C)c(C#Cc2ccccc2)s1,6.60 to 7.30
13,CC(=O)Nc1nc(C)c(C#Cc2cccc(F)c2)s1,6.60 to 7.30
14,CC(=O)Nc1nc(C)c(C#Cc2cccc(C)c2)s1,6.60 to 7.30
15,CC(=O)Nc1nc(C)c(C#Cc2cccc(N)c2)s1,6.60 to 7.30
16,Cc1nc(NC(=O)CCC(=O)OC(C)(C)C)sc1C#Cc1ccncc1,6.60 to 7.30
17,Cc1nc(NC(=O)NCCOc2cccc(Cl)c2)sc1C#Cc1ccncc1,> 7.30
18,Cc1nc(NC(=O)CCCC(=O)NC(C)(C)C)sc1C#Cc1ccncc1,6.60 to 7.30
19,CCn1cc(CCNC(=O)Nc2nc(C)c(C#Cc3ccncc3)s2)cn1,> 7.30
20,Cc1nc(NC(=O)NCCOCC2CC2)sc1C#Cc1cccnc1,> 7.30
21,Cc1nc(NC(=O)NC2COc3ccccc3C2)sc1C#Cc1ccncc1 (stereo not given),6.60 to 7.30
22,CCOC(=O)N1CCC(OC(=O)Nc2nc(C)c(C#Cc3ccncc3)s2)CC1,6.60 to 7.30
23,Cc1ccc(OCCNC(=O)Nc2nc(C)c(C#Cc3ccncc3)s2)cc1,> 7.30
24,Cc1nc(NC(=O)NCCC(=O)NC(C)(C)C)sc1C#Cc1ccncc1,> 7.30

# Second part, the molecule after the results:
row,pKi,SMILES
1,> 7.30,Cc1nc(NC(=O)NCC2CCCCO2)sc1C#Cc1ccncc1 (stereo not given)
2,> 7.30,Cc1nc(NC(=O)NCCC(=O)NCC(F)(F)F)sc1C#Cc1ccncc1
3,> 7.30,Cc1nc(NC(=O)NCCOCC2CC2)sc1C#Cc1ccnc2ccccc12
4,> 7.30,Cc1nc(NC(=O)NCCc2ncn(CC(F)F)c2Cl)sc1C#Cc1ccncc1
5,> 7.30,Cc1nc(NC(=O)NCCOc2ccccc2)sc1C#Cc1cccnc1
6,> 7.30,COc1ccc(C#Cc2sc(NC(=O)NCCOCC3CC3)nc2C)cc1OC
7,> 7.30,Cc1nc(NC(=O)NCCO)sc1C#Cc1ccncc1
8,> 7.30,COc1cncc(C#Cc2sc(NC(=O)NC[C@H](C)OCC3CC3)nc2C)c1
9,> 7.30,Cc1nc(NC(=O)NC[C@H](C)O)sc1C#Cc1ccncc1
10,> 7.30,CCCO[C@@H](C)CNC(=O)Nc1nc(C)c(C#Cc2ccncc2)s1
11,> 7.30,Cc1nc(NC(=O)NCCc2cn(CCF)cn2)sc1C#Cc1ccncc1
12,> 7.30,Cc1nc(NC(=O)NCCC(=O)OC(C)(C)C)sc1C#Cc1ccccc1
13,> 7.30,COC1CN(C(=O)Nc2nc(C)c(C#Cc3ccncc3)s2)C1
14,> 7.30,Cc1nc(NC(=O)NCCc2cn(C(C)C)cn2)sc1C#Cc1ccncc1
15,> 7.30,Cc1nc(NC(=O)NCCn2cc(Cl)cn2)sc1C#Cc1ccncc1
16,> 7.30,COc1ccc(CNC(=O)Nc2nc(C)c(C#Cc3ccncc3)s2)cc1
17,> 7.30,CC(=O)Nc1nc(C)c(C#Cc2ccccc2C)s1
18,> 7.30,Cc1nc(NC(=O)NCCOCC2CC2)sc1C#Cc1cnc2ncccc2c1
19,> 7.30,Cc1nc(NC(=O)NCc2ccccn2)sc1C#Cc1ccncc1
20,> 7.30,CCCO[C@@H](C)CNC(=O)Nc1nc(C)c(C#Cc2cncc(OC)c2)s1
21,> 7.30,Cc1nc(NC(=O)NCCOc2ccc(F)cc2)sc1C#Cc1ccncc1
22,> 7.30,Cc1nc(NC(=O)NC[C@H](C)OCC2CC2)sc1C#Cc1ccc2nccnc2c1

row,pKi,SMILES
1,> 7.30,Cc1nc(NC(=O)NCCc2cn(CC(F)(F)F)cn2)sc1C#Cc1ccccc1
2,> 7.30,CCCCOCCCNC(=O)Nc1nc(C)c(C#Cc2ccncc2)s1
3,> 7.30,Cc1nc(NC(=O)NCCOCC2CC2)sc1C#Cc1cccnc1Cl
4,> 7.30,Cc1nc(NC(=O)NCC[S+](C)[O-])sc1C#Cc1ccncc1 (stereo not given)
5,> 7.30,Cc1nc(NC(=O)NCCOc2cccc(F)c2)sc1C#Cc1ccncc1
6,> 7.30,CC(=O)NCC(=O)Nc1nc(C)c(C#Cc2ccncc2)s1
7,> 7.30,CCc1ccc(CNC(=O)Nc2nc(C)c(C#Cc3ccncc3)s2)nc1
8,> 7.30,Cc1nc(NC(=O)NCCOCC2CC2)sc1C#Cc1ccc2nccnc2c1
9,> 7.30,Cc1nc(NC(=O)NCCC#N)sc1C#Cc1ccncc1
10,> 7.30,COc1ccc(C#Cc2sc(NC(=O)NCCOCC3CC3)nc2C)nc1OC
11,> 7.30,COc1cc(C#Cc2sc(NC(=O)NCCOCC3CC3)nc2C)cnc1OC
12,> 7.30,Cc1nc(NC(=O)NC[C@H](C)OCC2CC2)sc1C#Cc1ccc2ncccc2c1
13,> 7.30,COc1ccccc1OCCNC(=O)Nc1nc(C)c(C#Cc2ccncc2)s1
14,> 7.30,CCCn1cnc(CCNC(=O)Nc2nc(C)c(C#Cc3ccncc3)s2)c1
15,> 7.30,COCCNC(=O)Nc1nc(C)c(C#Cc2ccncc2)s1
16,> 7.30,COc1cc(C#Cc2sc(NC(=O)NCCn3cnc(C(F)(F)F)c3)nc2C)cnc1OC
17,> 7.30,CCc1ccc(CCNC(=O)Nc2nc(C)c(C#Cc3ccncc3)s2)nc1
18,> 7.30,Cc1nc(NC(=O)NCC2CCCO2)sc1C#Cc1ccncc1 (stereo not given)
19,> 7.30,COc1ncc(C#Cc2sc(NC(=O)NCCOCC3CC3)nc2C)cn1
20,> 7.30,Cc1nc(NC(=O)NC[C@H](C)OCC2CC2)sc1C#Cc1cncc(F)c1
21,> 7.30,CCn1cnc(CCNC(=O)Nc2nc(C)c(C#Cc3ccncc3)s2)c1Cl
22,> 7.30,Cc1nc(NC(=O)NCCC2COCCO2)sc1C#Cc1ccncc1 (stereo not given)
